Experimental data: patent US20060110405A1, “Plasma or serum fraction for treatment and prevention of viral infections and related conditions” (priority 2004, published 2006)
≈ marks a conversion by molar mass, not a printed value.

Experiments:
[1] = tested on: HIV-1 IIIB; test: microbe, parasite or virus in culture; format: cell-based
Procedure: Antibody depletion experiments were conducted on the product prepared as described in Example 3 by the panning technique as follows. […] The plate was incubated for 3 hours at room temperature. Following the incubation, the antibodies and PBS were removed and 200 μL of blocking solution (0.05% Tween 20, 10 mg/mL BSA in PBS) was added and the plate was incubated overnight at 4° C. Following the overnight incubation, the wells were washed 5 times with wash buffer (PBS plus 0.05% Tween-20). One hundred fifty microliters (150 μL) of the serum product (designated VR-30) was added to each of the wells and the plate was incubated for 2 hours at 37° C.
The serum was then removed and used in the HIV-β-galactosidase attachment assay. The depleted material was evaluated for activity in parallel with undepleted VR-30 (VR-30 Std Treatment) and mock-depleted VR-30 (VR-30 PBS).
The anti-HIV-activity of the initial serum sample is determined by: (1) measuring the protein concentration of the serum fraction using Bradford or Lowery based method for determining protein concentration; (2) determining the activity of the fraction using established in vitro anti-viral assay (attachment assay); (3) assigning a unit of activity to the fraction based on the amount of protein needed to achieve a 50% inhibition of viral replication/infectivity (IC50). This unit can be used as a baseline to track the fold purification obtained through the fractionation process.
Efficacy plates were evaluated by the chemilluminescence detection assay.
All EC50's in FIG. 2 and Table IV are the concentration of total protein (μg/ml) in a given fraction that inhibited viral replication in the attachment assay to 50% of the no compound control.

[2] = tested on: HeLa LTR β-Gal cells; test: Cellular toxicity in parallel plates, tetrazolium dye (XTT) cell viability end point
Procedure: The fold increase in activity was calculated as a relative decrease in EC50 to the Week 0 material. Chicago Sky Blue was included as a positive control for inhibition of viral attachment.
HIV Attachment Assay: A crude serum sample dialyzed against Buffer A, the dialyzed 66% ammonium sulfate pellet, and DEAE-Blue fractions 12, 14, 60, 62, 64, and 66 were analyzed for anti-HIV activity in a virus attachment assay. These fractions were diluted in Buffer A to a 2× high test concentration and analyzed for anti-HIV activity in a cell attachment assay that utilizes a galactosidase reporter to measure virus attachment and infection. Sister plates were used to evaluate fraction toxicity using an XTT based end point. Briefly, on the day prior to compound and virus addition, 100 μL of HeLa LTR β-Gal cells at a density of 1×10^4/well in 10% complete DMEM were plated in 96-well flat bottomed plates and incubated overnight at 37° C./5% CO2. Duplicate plates were seeded in order to evaluate efficacy and toxicity in parallel. Following the overnight incubation, selected protein fractions diluted to a high test concentration in culture media and were further diluted in ½ log increments such that a total of 6 concentrations were evaluated.
Medium was removed and 50 μL of the prepared compound dilutions were added in triplicate to both plates. A volume of 50 μL of 10% complete DMEM was added to the virus control wells and 100 μL was added to the cell control wells. Plates were incubated for approximately 15-30 minutes while virus (HIV-1 IIIB) was being prepared. The appropriate titer of virus used in the assay was determined and prepared and 50 μL was then added to the wells containing compound and the virus control wells on the efficacy plate. On the toxicity plate, 50 μL of 10% complete DMEM was added to these same wells. Plates were incubated for 2 hours at 37° C./5% CO2. […] Following the washing steps, 200 μL of 10% complete DMEM was added to all wells and the plates were incubated at 37° C./5% CO2 for 48 hours. The toxicity plates were evaluated by the addition of the tetrazolium dye XTT which is converted by mitochondrial enzymes in viable cells to a soluble formazan product. Efficacy plates were evaluated by the chemilluminescence detection assay.

[3] = tested on: monocytes and macrophages; conditions: antiviral models and cytokine induction from monocytes and macrophages; cited from earlier work

| Compound | IC50 ([1]; Human immunodeficiency virus 1, IIIB, HeLa) [µg/mL] | EC50 ([1]; Human immunodeficiency virus 1, IIIB, HeLa, Table II, total protein for 50% inhibition of HIV attachment and replication, triplicate) [µg/mL] | EC50 ([1]; Human immunodeficiency virus 1, IIIB, HeLa, Table V, total protein inhibiting viral replication to 50% of no compound control, HIV-1 IIIB) [µg/mL] | TC50 ([2]; Table I, control compounds) [µg/mL] | TC50 ([2]; Table II, 50% cellular toxicity, XTT) [µg/mL] | TC50 ([2]; Table V, XTT toxicity plates) [µg/mL] | potency relative to imiquimod [3] | IC50 ([1]; Table I, control compounds) [µg/mL] |
| --- | --- | --- | --- | --- | --- | --- | --- | --- |
| COc1cc(-c2ccc(/N=N/c3ccc4c(S(=O)(=O)O)cc(S(=O)(=O)O)c(N)c4c3O)c(OC)c2)ccc1/N=N/c1ccc2c(S(=O)(=O)O)cc(S(=O)(=O)O)c(N)c2c1O [Chicago Sky Blue] | 1.3 (≈ 1.44 µM) | 100 (≈ 111 µM) | 0.6 (≈ 0.663 µM) | >10 | >10000 | >10 | – | – |
| CCOCc1nc2c(N)nc3ccccc3c2n1CC(C)(C)O [Fraction S-28463, 4-Amino-otec,-dimethyl-2-ethoxymethyl-lH-imidazo[4,5-c]quinoline-1-ethanol] | – | – | – | – | – | – | about 100 fold | – |
| Dextran Sulfate | – | – | – | >25 | – | – | – | 0.65 |
